Experimental data as given in patent US10836725B2, “Modulators of the integrated stress pathway” (Calico Life Sciences LLC, priority 2016, dated 2020).

System: ATF4 luciferase reporter
Experiment: ATF4-Luc assay in HEK293T cells carrying the ATF4 luciferase reporter (in vitro model of VWMD)
Type: cell-based, human
Conditions: Homo sapiens, HEK-293T, 1 μg/mL tunicamycin, 7 hours, luminescence (One Glo)
Procedure: In order to test exemplary compounds of the invention in a cellular context, a stable VWMD cell line was first constructed. The ATF4 reporter was prepared by fusing the human full-length ATF4 5′-UTR (NCBI Accession No. BC022088.2) in front of the firefly luciferase (FLuc) coding sequence lacking the initiator methionine as described in Sidrauski et al (eLife 2013). The construct was used to produce recombinant retroviruses using standard methods and the resulting viral supernatant was used to transduce HEK293T cells, which were then subsequently selected with puromycin to generate a stable cell line.
HEK293T cells carrying the ATF4 luciferase reporter were plated on polylysine coated 384-well plates (Greiner Bio-one) at 30,000 cells per well. Cells were treated the next day with 1 μg/mL tunicamycin and 200 nM of a compound of Formula (I) for 7 hours. Luminescence was measured using One Glo (Promega) as specified by the manufacturer. Cells were maintained in DMEM with L-glutamine supplemented with 10% heat-inactivated FBS (Gibco) and Antibiotic-Antimycotic solution (Gibco).
Table 2 below summarizes the EC50 data obtained using the ATF4-Luc assay for exemplary compounds of the invention.

| SMILES | EC50 |
| --- | --- |
| O=C(COc1ccc(Cl)c(F)c1)NC12CCC(C(=O)NCc3ccc(C(F)(F)F)cn3)(CC1)[C@H](O)C2 (single isomer, unassigned) [Compound 113] | < 250 nM |
| O=C(COc1ccc(Cl)cc1)NC12CC(C(=O)NCCOc3ccc(Cl)cc3)(C1)C2 [Compound 100, 3-[2-(4-chlorophenoxy)acetamido]-N-[2-(4-chlorophenoxy)ethyl]bicyclo[1.1.1]-pentane-1-carboxamide] | < 250 nM |
| O=C(COc1ccc(Cl)cc1)NC12CC(C(=O)NCCOc3cccc(F)c3)(C1)C2 [Compound 104, 3-[2-(4-chlorophenoxy)acetamido]-N-[2-(3-fluorophenoxy)ethyl]bicyclo-[1.1.1]pentane-1-carboxamide] | 250 to 500 nM |
| Cc1ccc(OCCNC(=O)C23CC(NC(=O)COc4ccc(Cl)cc4)(C2)C3)cc1 [Compound 105, 3-[2-(4-chlorophenoxy)acetamido]-N-[2-(4-methylphenoxy)ethyl]bicyclo-[1.1.1]pentane-1-carboxamide] | 500 to 1000 nM |
| O=C(COc1ccc(Cl)c(F)c1)NC12CCC(C(=O)NCc3ccc(C(F)(F)F)cn3)(CC1)C(O)C2 (centres unmarked) [Compound 106] | < 250 nM |
| CC(C)c1cc(CNC(=O)C23CCC(NC(=O)COc4ccc(Cl)c(F)c4)(CC2)CC3O)on1 (centres unmarked) [Compound 109, 4-[2-(4-chloro-3-fluorophenoxy)acetamido]-2-hydroxy-N-{[3-(propan-2-yl)-1,2-oxazol-5-yl]methyl}bicyclo[2.2.2]octane-1-carboxamide] | 500 to 1000 nM |
| O=C(COc1ccc(Cl)c(F)c1)NC12CCC(C(=O)NCc3ccc(C(F)(F)F)cc3)(CC1)C(O)C2 (centres unmarked) [Compound 110, 4-[2-(4-chloro-3-fluorophenoxy)acetamido]-2-hydroxy-N-{[4-(trifluoromethyl)phenyl]methyl}bicyclo[2.2.2]octane-1-carboxamide] | < 250 nM |
| Cc1cc(C)c(CNC(=O)C23CCC(NC(=O)COc4ccc(Cl)c(F)c4)(CC2)CC3O)cn1 (centres unmarked) [Compound 111, 4-[2-(4-chloro-3-fluorophenoxy)acetamido]-N-[(4,6-dimethylpyridin-3-yl)methyl]-2-hydroxybicyclo[2.2.2]octane-1-carboxamide] | > 2000 nM |

Further lines, results first:

| EC50 | SMILES |
| --- | --- |
| < 250 nM | O=C(COc1ccc(Cl)c(F)c1)NC12CCC(C(=O)NCc3ccc(C(F)(F)F)cn3)(CC1)[C@@H](O)C2 (single isomer, unassigned) [Compound 114] |
| 1000 to 2000 nM | Cc1cccc(OCCNC(=O)C23CC(NC(=O)COc4ccc(Cl)cc4)(C2)C3)c1 [Compound 101, 3-[2-(4-chlorophenoxy)acetamido]-N-[2-(3-methylphenoxy)ethyl]bicyclo[1.1.1]-pentane-1-carboxamide] |
| 250 to 500 nM | O=C(COc1ccc(Cl)cc1)NC12CC(C(=O)NCCOc3ccc(F)cc3)(C1)C2 [Compound 102, 3-[2-(4-chlorophenoxy)acetamido]-N-[2-(4-fluorophenoxy)ethyl]bicyclo[1.1.1]-pentane-1-carboxamide] |
| 250 to 500 nM | Cc1cc(OCCNC(=O)C23CC(NC(=O)COc4ccc(Cl)cc4)(C2)C3)ccc1Cl [Compound 103, N-[2-(4-chloro-3-methylphenoxy)ethyl]-3-[2-(4-chlorophenoxy)acetamido]-bicyclo[1.1.1]pentane-1-carboxamide] |
| < 250 nM | O=C(COc1ccc(Cl)c(F)c1)NC12CCC(C(=O)NCCOc3ccc(Cl)cc3)(CC1)C(O)C2 (centres unmarked) [Compound 107, 4-[2-(4-chloro-3-fluorophenoxy)acetamido]-N-[2-(4-chlorophenoxy)ethyl]-2-hydroxybicyclo[2.2.2]octane-1-carboxamide] |
| < 250 nM | O=C(COc1ccc(Cl)c(F)c1)NC12CCC(C(=O)NCc3ccc(Cl)cn3)(CC1)C(O)C2 (centres unmarked) [Compound 108, 4-[2-(4-chloro-3-fluorophenoxy)acetamido]-N-[(5-chloropyridin-2-yl)methyl]-2-hydroxybicyclo[2.2.2]octane-1-carboxamide] |
